The values below come from ChEMBL document CHEMBL2203108, “Induction of microtubule-damage, mitotic arrest, Bcl-2 phosphorylation, Bak activation, and mitochondria-dependent caspase cascade is involved in human Jurkat T-cell apoptosis by aruncin B from Aruncus dioicus var. kamtschaticus” (Bioorg Med Chem Lett, 2012).

Values after ≈ are worked out from the molar mass of the structure shown. Active and inactive are the calls of the source. No cut-off for these calls is given here.

Data set [1] has as its system Jurkat. Put plainly: Induction of microtubule damage in human Jurkat T cells overexpressing Bcl2 after 36 hrs by immunostaining method. The class given is cell-based.
Data set [2] deals with Jurkat. Briefly: Induction of cell cycle arrest in human Jurkat T cells overexpressing Bcl2 assessed as G2/M phase cells after 36 hrs by flow cytometry (reference value: 2.4%). The class given is functional. In general terms: A flow cytometer gives signals particle by particle.
In data set [3] the test system is Jurkat. Briefly: Induction of microtubule damage in human Jurkat T cells overexpressing Neo after 36 hrs by immunostaining method. The class given is cell-based.
Data set [4] deals with Jurkat. Briefly: Induction of apoptosis in human Jurkat T cells overexpressing Neo after 36 hrs by flow cytometry. The class given is functional, cell-based.
Data set [5] has as its system Jurkat. Put plainly: Induction of apoptosis in human Jurkat T cells overexpressing Bcl2 assessed as cellular protrusions after 36 hrs by light microscopy. The class given is functional, cell-based.
In data set [6] the test system is Jurkat. Put plainly: Induction of apoptosis in human Jurkat T cells overexpressing Neo assessed as cellular protrusions after 36 hrs by light microscopy. The data set is classed as functional, cell-based.
For data set [7], the system named is Jurkat. Briefly: Induction of cell cycle arrest in human Jurkat T cells overexpressing Neo assessed as G2/M phase cells after 36 hrs by flow cytometry (reference value: 4.7%). The class given is functional.
The subject of data set [8] is Jurkat. Briefly: Induction of apoptosis in human Jurkat T cells overexpressing Bcl2 after 36 hrs by flow cytometry. The class given is functional, cell-based.
Data set [9] relates to Jurkat. Briefly: Cytotoxicity against human Jurkat T cells assessed as cell viability at 30 ug/ml after 36 hrs by MTT assay relative to control. Particulars: read-out: Activity.
Data set [10] has as its system Jurkat. Put plainly: cells. Conditions: Homo sapiens, 36 h, read-out: Activity.
Description: Induction of apoptosis in human Jurkat T cells overexpressing Neo assessed as cell viability at 15 ug/ml after 36 hrs by MTT assay
Data set [11] in a line: Cytotoxicity against human PHA-stimulated T cells assessed as cell viability at 30 ug/ml after 36 hrs by MTT assay relative to control. Particulars: read-out: Activity.
Data set [12] is described as follows: Cytotoxicity against human normal peripheral T cells after 36 hrs by MTT assay. Particulars: T-cell. For orientation: Formazan colour is commonly taken as a measure of viable cells.
The nature of data set [13]: Cytotoxicity against human normal peripheral T cells assessed as cell viability at 60 ug/ml after 36 hrs by MTT assay relative to control.
A short description of another data set: cells. Conditions: Homo sapiens, T-cell, 36 h, read-out: Activity.
The test system of data set [14] is Jurkat. Put plainly: cells. Particulars: Homo sapiens, 36 h, read-out: Activity. The source holds these as a separate data set.
Description: Induction of apoptosis in human Jurkat T cells overexpressing Neo assessed as cell viability at 7.5 ug/ml after 36 hrs by MTT assay
The subject of data set [15] is Jurkat. Put plainly: cells. Particulars: Homo sapiens, 36 h, read-out: Activity. This is another data set of the same source.
Description: Induction of apoptosis in human Jurkat T cells overexpressing Bcl2 assessed as cell viability at 15 ug/ml after 36 hrs by MTT assay
Data set [16] has as its system Jurkat. Briefly: Cytotoxicity against human Jurkat T cells assessed as cell viability at 60 ug/ml after 36 hrs by MTT assay relative to control. Particulars: read-out: Activity.
For data set [17], the system named is Jurkat. Briefly: Cytotoxicity against human Jurkat T cells after 36 hrs by MTT assay.
A short description of data set [18]: Cytotoxicity against human PHA-stimulated T cells assessed as cell viability at 60 ug/ml after 36 hrs by MTT assay relative to control. Particulars: read-out: Activity.
Data set [19] has as its system Jurkat. Put plainly: cells. Conditions: Homo sapiens, 36 h, read-out: Activity. The source holds these as a separate data set.
Description: Induction of apoptosis in human Jurkat T cells overexpressing Bcl2 assessed as cell viability at 7.5 ug/ml after 36 hrs by MTT assay
The subject of data set [20] is Jurkat. Briefly: cells. Particulars: Homo sapiens, 36 h, read-out: Activity. The source holds these as a separate data set.
Description: Cytotoxicity against human Jurkat T cells assessed as cell viability at 15 ug/ml after 36 hrs by MTT assay relative to control
For data set [21], the system named is Jurkat. Put plainly: Induction of apoptosis in human Jurkat T cells overexpressing Bcl2 assessed as cell viability at 30 ug/ml after 36 hrs by MTT assay. Particulars: read-out: Activity.
The test system of data set [22] is Jurkat. Put plainly: Induction of apoptosis in human Jurkat T cells overexpressing Neo assessed as cell viability at 30 ug/ml after 36 hrs by MTT assay. Conditions: read-out: Activity.
Data set [23] is described as follows: Cytotoxicity against human PHA-stimulated T cells after 36 hrs by MTT assay. Particulars: T-cell.

Turning to `O=c1c(-c2ccc(O)cc2)coc2cc(O)cc(O)c12` [GENISTEIN], the outcome in the data set on Jurkat [1], in the data set on Jurkat [3], in the data set on Jurkat [5], with Jurkat [6] and with Jurkat [8] was inactive. In addition, the values for the Activity in the data set with Jurkat [2] and in the data set with Jurkat [7] were 6.7% and 35%, respectively. Moreover, the result in the data set with Jurkat [4] was Active.
One may read the IC50 as the concentration that inhibits the measured activity by half. Higher therefore signals weaker potency. Consider `CCOC(C)(C)/C=C1/C=C(C(=O)O)C(O)CO1` (configuration not stated) [ARUNCIN B], for which the viability at 30 µg/mL is 36.1% in the data set on Jurkat [9], 68.5% in data set [11], 61.2% in the data set with Jurkat [21] and 44.9% with Jurkat [22]. The viability at 15 µg/mL was 57.4% in the data set with Jurkat [10], 85.9% in “cells”, 71.5% with Jurkat [15] and 67.7% in the data set on Jurkat [20]. The IC50 in data set [12] is over 60 µg/mL; in the data set with Jurkat [17], 22 µg/mL (≈ 90.8 µM); in data set [23] it was 49 µg/mL (≈ 202 µM). In data set [13], the viability at 36 h, 60 ug/ml came out at 63.8%. The viability at 7.5 µg/mL with Jurkat [14] stood at 82%; in the data set on Jurkat [19] it was 81.5%. The viability at 60 µg/mL came to 24.5% in the data set with Jurkat [16] and 25% in [18].
As to `COC(=O)Nc1nc2cc(C(=O)c3cccs3)ccc2[nH]1` [NOCODAZOLE], the outcome with Jurkat [1], in the data set on Jurkat [3], in the data set on Jurkat [4], in the data set on Jurkat [5] and in the data set with Jurkat [6] was Active. Also, the Activity with Jurkat [2] is reported as 5.6%; with Jurkat [7], 40.3%. The outcome in the data set with Jurkat [8] was inactive.
